# Reference: BindingDB's records for doi:10.1021/acs.jmedchem.6b01885 (Indiana University School of Medicine, 2017)
# Target: Survival motor neuron protein (Homo sapiens, UniProt Q16637)
# Assay: Stabilization of human SMN protein expressed in HEK293 cells expressing SMN2 promoter after 24 hrs by luciferase reporter gene assay
# Chain of Survival motor neuron protein (Q16637 whole entry): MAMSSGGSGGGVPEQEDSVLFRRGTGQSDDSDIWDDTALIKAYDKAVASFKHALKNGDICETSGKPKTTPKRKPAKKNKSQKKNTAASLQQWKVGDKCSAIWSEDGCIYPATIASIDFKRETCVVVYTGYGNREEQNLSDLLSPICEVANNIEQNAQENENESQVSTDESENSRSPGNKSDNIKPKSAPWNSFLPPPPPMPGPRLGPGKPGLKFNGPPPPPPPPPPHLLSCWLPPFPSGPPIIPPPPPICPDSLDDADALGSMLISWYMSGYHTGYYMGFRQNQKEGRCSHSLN
row,SMILES,EC50
1,CC(C)c1cc(C(=O)Nc2nc3ccccc3s2)no1,170 nM
2,CC(C)c1cc(C(=O)Nc2cccc(F)c2)no1,340 nM
3,CC(C)c1cc(C(=O)Nc2nccs2)no1,780 nM
4,CC(C)c1cc(C(=O)Nc2ccc(F)cc2)no1,1800 nM
5,O=C(Nc1ncc(C2CCC2)s1)c1ccc(F)c(Cl)c1,500 nM
6,CCc1cc(C(=O)Nc2ccc(F)c(Cl)c2)no1,8800 nM
7,CC(C)c1cc(NC(=O)c2ccc(F)c(Cl)c2)no1,9900 nM
8,CC(C)c1cc(C(=S)Nc2ccc(F)c(Cl)c2)no1,13900 nM
9,COc1ccccc1NC(=O)c1cc(C(C)C)on1,7300 nM
10,CC(C)c1cc(C(=O)N2CCc3ccccc32)no1,720 nM
11,CC(C)c1cc(C(=O)Nc2cccc(Cl)c2)no1 [MLS000087323],860 nM
12,CC(C)c1cc(C(=O)Nc2nc3ccccc3[nH]2)no1,260 nM
13,CC(C)c1cc(C(=O)Nc2cccnc2)no1 [MLS000087329],9900 nM
14,CC(C)(C)c1cc(C(=O)Nc2ccc(F)c(Cl)c2)no1,1930 nM
15,CC(C)c1nc(NC(=O)c2ccc(F)c(Cl)c2)cs1,1600 nM
16,CC(C)c1cc(C(=O)Nc2ccccc2F)no1,260 nM
17,O=C(Nc1ccc(F)c(Cl)c1)c1cc(Cc2ccccc2)on1,3560 nM
18,CC(C)c1cc(NC(=O)c2ccc(F)c(Cl)c2)on1,5500 nM
19,COc1cccc(NC(=O)c2cc(C(C)C)on2)c1,3600 nM
20,CC(C)c1cc(C(=O)Nc2ccc(Cl)cc2)no1,2800 nM
21,Cc1c(C(=O)Nc2ccc(F)c(Cl)c2)noc1C(C)C,500 nM
22,CC(C)c1cc(C(=O)Nc2ccccc2)no1,280 nM
23,CC(C)c1cc(CNc2ccc(F)c(Cl)c2)no1,11200 nM
24,CC(C)c1cc(C(=O)Nc2ccccc2Cl)no1,6200 nM
25,Cc1ccccc1NC(=O)c1cc(C(C)C)on1,5400 nM
26,Cc1ccc(NC(=O)c2cc(C(C)C)on2)cc1,1400 nM
27,CC(C)c1cc(C(=O)Nc2nc3ccccc3n2C)no1,2600 nM
28,CC(C)Cc1cc(C(=O)Nc2ccc(F)c(Cl)c2)no1,1500 nM
29,Cc1cccc(NC(=O)c2cc(C(C)C)on2)c1,1800 nM
30,CC(C)c1cc(C(=O)Nc2ccccn2)no1,360 nM
